Assay results taken from ChEMBL document CHEMBL1201862, “PubChem BioAssay data set” (2004).
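The compound was tested at five concentrations on cells cultured in 96-well plates, with a 48-hour exposure period. Abbreviation: GI50, concentration required for 50% inhibition of growth.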 Activity calls are given as the source filed them. Rule as the data show it: active = GI50 up to about 1.1 µM and inactive = higher.

Legend:
Assay in all cases: NCI tumour cell line growth inhibition, 48 h
Hs-578T = test system: Hs-578T
EKVX = test system: EKVX
UACC-62 = test system: UACC-62
OVCAR-3 = test system: OVCAR-3
HOP-92 = test system: HOP-92
786-0 = test system: 786-0
COLO 205 = test system: COLO 205
A498 = test system: A498
LOX IMVI = test system: LOX IMVI
HT-29 = test system: HT-29
RPMI-8226 = test system: RPMI-8226
MDA-N = test system: MDA-N
M14 = test system: M14
MDA-MB-231 = test system: MDA-MB-231
SF-295 = test system: SF-295
SW-620 = test system: SW-620
HCT-15 = test system: HCT-15
NCI-H522 = test system: NCI-H522
SK-OV-3 = test system: SK-OV-3
SK-MEL-5 = test system: SK-MEL-5
BT-549 = test system: BT-549
DU-145 = test system: DU-145
SF-268 = test system: SF-268
CCRF-CEM = test system: CCRF-CEM
UACC-257 = test system: UACC-257
Malme-3M = test system: Malme-3M
UO-31 = test system: UO-31
NCI-H226 = test system: NCI-H226
SN12C = test system: SN12C
MOLT-4 = test system: MOLT-4
SF-539 = test system: SF-539
U-251 = test system: U-251
MCF7 = test system: MCF7
KM12 = test system: KM12
OVCAR-5 = test system: OVCAR-5
MDA-MB-435 = test system: MDA-MB-435
TK-10 = test system: TK-10
ACHN = test system: ACHN
T47D = test system: T47D
A549 = test system: A549
OVCAR-4 = test system: OVCAR-4
SNB-19 = test system: SNB-19
HL-60 = test system: HL-60
HCC 2998 = test system: HCC 2998
NCI/ADR-RES = test system: NCI/ADR-RES
SNB-75 = test system: SNB-75
NCI-H460 = test system: NCI-H460
SK-MEL-2 = test system: SK-MEL-2
SK-MEL-28 = test system: SK-MEL-28
OVCAR-8 = test system: OVCAR-8
PC-3 = test system: PC-3
HCT-116 = test system: HCT-116
CAKI-1 = test system: CAKI-1
IGROV-1 = test system: IGROV-1
NCI-H23 = test system: NCI-H23
RXF 393 = test system: RXF 393
HOP-62 = test system: HOP-62
K562 = test system: K562

With `C/C=C1/CN2CCC34C(=C(C(=O)OC)C1CC23)Nc1ccc(O)cc14` (stereo not given) the GI50 (Hs-578T) was 34.3 µM (inactive), the GI50 (EKVX) was > 100 µM (inactive) and the GI50 (UACC-62) was > 100 µM (inactive). For the same compound, the GI50 (OVCAR-3) was > 100 µM (inactive), the GI50 (HOP-92) was > 100 µM (inactive) and the GI50 (786-0) was 59.3 µM (inactive). For the same compound, the GI50 (COLO 205) was > 100 µM (inactive), the GI50 (A498) was > 100 µM (inactive) and the GI50 (LOX IMVI) was > 100 µM (inactive). For the same compound, the GI50 (HT-29) was > 100 µM (inactive), the GI50 (RPMI-8226) was > 100 µM (inactive) and the GI50 (MDA-N) was > 100 µM (inactive). For the same compound, the GI50 (M14) was > 100 µM (inactive), the GI50 (MDA-MB-231) was > 100 µM (inactive) and the GI50 (SF-295) was 77.8 µM (inactive). For the same compound, the GI50 (SW-620) was > 100 µM (inactive), the GI50 (HCT-15) was greater than 100 µM and the GI50 (NCI-H522) was > 100 µM (inactive). For the same compound, the GI50 (SK-OV-3) was > 100 µM (inactive), the GI50 (SK-MEL-5) was > 100 µM (inactive) and the GI50 (BT-549) was > 100 µM (inactive). The GI50 (DU-145) was > 100 µM (inactive), the GI50 (SF-268) was 61.8 µM (inactive) and the GI50 (CCRF-CEM) was > 100 µM (inactive). For the same compound, the GI50 (UACC-257) was > 100 µM (inactive), the GI50 (Malme-3M) was > 100 µM (inactive) and the GI50 (UO-31) was > 100 µM (inactive). For the same compound, the GI50 (NCI-H226) was > 100 µM (inactive), the GI50 (SN12C) was > 100 µM (inactive) and the GI50 (MOLT-4) was > 100 µM (inactive). The GI50 (SF-539) was > 100 µM (inactive), the GI50 (U-251) was > 100 µM (inactive) and the GI50 (MCF7) was > 100 µM (inactive). For the same compound, the GI50 (KM12) was > 100 µM (inactive), the GI50 (OVCAR-5) was > 100 µM (inactive) and the GI50 (MDA-MB-435) was > 100 µM (inactive). For the same compound, the GI50 (TK-10) was > 100 µM (inactive), the GI50 (ACHN) was > 100 µM (inactive) and the GI50 (T47D) was > 100 µM (inactive). The GI50 (A549) was > 100 µM (inactive), the GI50 (OVCAR-4) was > 100 µM (inactive) and the GI50 (SNB-19) was > 100 µM (inactive). For the same compound, the GI50 (HL-60) was > 100 µM (inactive), the GI50 (HCC 2998) was > 100 µM (inactive) and the GI50 (NCI/ADR-RES) was > 100 µM (inactive). For the same compound, the GI50 (SNB-75) was > 100 µM (inactive), the GI50 (NCI-H460) was > 100 µM (inactive) and the GI50 (SK-MEL-2) was > 100 µM (inactive). The GI50 (SK-MEL-28) was > 100 µM (inactive), the GI50 (OVCAR-8) was > 100 µM (inactive) and the GI50 (PC-3) was > 100 µM (inactive). The GI50 (HCT-116) was > 100 µM (inactive), the GI50 (CAKI-1) was > 100 µM (inactive) and the GI50 (IGROV-1) was > 100 µM (inactive). For the same compound, the GI50 (NCI-H23) was > 100 µM (inactive).

`CC(=O)C1=C(C)N2C(=NC3=C(CCc4ccccc43)C2c2ccc(F)cc2)S1` (stereo not given) was tested, and the GI50 (Hs-578T) was 42.8 µM (inactive), the GI50 (EKVX) was 24 µM (inactive) and the GI50 (UACC-62) was 78.2 µM (inactive). For the same compound, the GI50 (OVCAR-3) was 67.9 µM (inactive), the GI50 (HOP-92) was 63.1 µM (inactive) and the GI50 (786-0) was > 100 µM (inactive). For the same compound, the GI50 (COLO 205) was 58.1 µM (inactive), the GI50 (A498) was 45.7 µM (inactive) and the GI50 (LOX IMVI) was 44.2 µM (inactive). The GI50 (HT-29) was 84.1 µM (inactive), the GI50 (RPMI-8226) was 17.5 µM (inactive) and the GI50 (MDA-N) was 55.6 µM (inactive). For the same compound, the GI50 (M14) was > 100 µM (inactive), the GI50 (MDA-MB-231) was 22.3 µM (inactive) and the GI50 (SF-295) was > 100 µM (inactive). The GI50 (SW-620) was > 100 µM (inactive), the GI50 (SK-OV-3) was > 100 µM (inactive) and the GI50 (SK-MEL-5) was 30.1 µM (inactive). For the same compound, the GI50 (BT-549) was 93.5 µM (inactive), the GI50 (DU-145) was > 100 µM (inactive) and the GI50 (SF-268) was 61 µM (inactive). For the same compound, the GI50 (CCRF-CEM) was 40.3 µM (inactive), the GI50 (UACC-257) was 79.4 µM (inactive) and the GI50 (UO-31) was 52.7 µM (inactive). The GI50 (NCI-H226) was > 100 µM (inactive), the GI50 (SN12C) was 51.3 µM (inactive) and the GI50 (MOLT-4) was 2.59 µM (inactive). For the same compound, the GI50 (SF-539) was 80.5 µM (inactive), the GI50 (U-251) was 84.7 µM (inactive) and the GI50 (MCF7) was 60.5 µM (inactive). The GI50 (KM12) was > 100 µM (inactive), the GI50 (OVCAR-5) was > 100 µM (inactive) and the GI50 (MDA-MB-435) was > 100 µM (inactive). For the same compound, the GI50 (ACHN) was 77.6 µM (inactive), the GI50 (T47D) was 63.5 µM (inactive) and the GI50 (A549) was > 100 µM (inactive). For the same compound, the GI50 (OVCAR-4) was 56.1 µM (inactive), the GI50 (SNB-19) was > 100 µM (inactive) and the GI50 (HL-60) was 28.4 µM (inactive). The GI50 (HCC 2998) was 83.9 µM (inactive), the GI50 (RXF 393) was 52.6 µM (inactive) and the GI50 (NCI/ADR-RES) was 37.3 µM (inactive). For the same compound, the GI50 (SNB-75) was 25.6 µM (inactive), the GI50 (HOP-62) was 84.1 µM (inactive) and the GI50 (SK-MEL-2) was > 100 µM (inactive). The GI50 (SK-MEL-28) was > 100 µM (inactive), the GI50 (OVCAR-8) was 62.5 µM (inactive) and the GI50 (PC-3) was 89.7 µM (inactive). The GI50 (HCT-116) was > 100 µM (inactive), the GI50 (IGROV-1) was 27.7 µM (inactive) and the GI50 (NCI-H23) was > 100 µM (inactive). For the same compound, the GI50 (K562) was 31.3 µM (inactive).

With `O=c1sc2c(s1)-c1sc(=O)sc1SS2` the GI50 (Hs-578T) was 81.7 µM (inactive), the GI50 (EKVX) was > 76.2 µM (inactive) and the GI50 (UACC-62) was > 100 µM (inactive). The GI50 (OVCAR-3) was > 100 µM (inactive), the GI50 (HOP-92) was > 100 µM (inactive) and the GI50 (786-0) was > 100 µM (inactive). The GI50 (COLO 205) was > 46 µM (inactive), the GI50 (A498) was > 42.9 µM (inactive) and the GI50 (LOX IMVI) was > 60.4 µM (inactive). The GI50 (HT-29) was > 42.1 µM (inactive), the GI50 (RPMI-8226) was > 100 µM (inactive) and the GI50 (MDA-N) was > 100 µM (inactive). The GI50 (M14) was 48.2 µM (inactive), the GI50 (MDA-MB-231) was > 100 µM (inactive) and the GI50 (SF-295) was > 100 µM (inactive). The GI50 (SW-620) was > 100 µM (inactive), the GI50 (HCT-15) was 18.7 µM and the GI50 (NCI-H522) was > 91.4 µM (inactive). For the same compound, the GI50 (SK-OV-3) was > 100 µM (inactive), the GI50 (SK-MEL-5) was > 56.5 µM (inactive) and the GI50 (BT-549) was > 100 µM (inactive). The GI50 (DU-145) was > 54 µM (inactive), the GI50 (SF-268) was > 100 µM (inactive) and the GI50 (CCRF-CEM) was > 54.8 µM (inactive). The GI50 (UACC-257) was > 96.8 µM (inactive), the GI50 (Malme-3M) was > 100 µM (inactive) and the GI50 (UO-31) was > 100 µM (inactive). For the same compound, the GI50 (NCI-H226) was 38.6 µM (inactive), the GI50 (SN12C) was > 100 µM (inactive) and the GI50 (MOLT-4) was > 61 µM (inactive). For the same compound, the GI50 (SF-539) was 41.5 µM (inactive), the GI50 (U-251) was > 31.6 µM (inactive) and the GI50 (MCF7) was > 100 µM (inactive). The GI50 (KM12) was > 100 µM (inactive), the GI50 (OVCAR-5) was 34.1 µM (inactive) and the GI50 (MDA-MB-435) was > 100 µM (inactive). For the same compound, the GI50 (TK-10) was > 52.6 µM (inactive), the GI50 (ACHN) was > 100 µM (inactive) and the GI50 (T47D) was > 100 µM (inactive). For the same compound, the GI50 (A549) was > 100 µM (inactive), the GI50 (OVCAR-4) was > 100 µM (inactive) and the GI50 (SNB-19) was > 100 µM (inactive). For the same compound, the GI50 (HL-60) was > 100 µM (inactive), the GI50 (HCC 2998) was > 100 µM (inactive) and the GI50 (RXF 393) was > 100 µM (inactive). The GI50 (NCI/ADR-RES) was 26.7 µM (inactive), the GI50 (SNB-75) was 7.71 µM (inactive) and the GI50 (HOP-62) was > 100 µM (inactive). For the same compound, the GI50 (NCI-H460) was > 100 µM (inactive), the GI50 (SK-MEL-2) was > 100 µM (inactive) and the GI50 (SK-MEL-28) was > 100 µM (inactive). The GI50 (OVCAR-8) was 21.6 µM (inactive), the GI50 (PC-3) was > 100 µM (inactive) and the GI50 (HCT-116) was > 100 µM (inactive). The GI50 (CAKI-1) was > 100 µM (inactive), the GI50 (IGROV-1) was > 96.4 µM (inactive) and the GI50 (NCI-H23) was > 37.5 µM (inactive). The GI50 (K562) was 55.5 µM (inactive).
